Data on two compounds can be found in patent publication US9630991B2, “βsheet tapes ribbons in tissue engineering” (University of Leeds, priority 2002, dated 2017).

In data set [1] the test system is L929 murine fibroblasts. As to the kind of experiment: Contact cytotoxicity testing. Type of data set: cell-based. Particulars: peptide gels in culture with L929 fibroblasts. The text has this:
L929 murine fibroblasts growing in contact with the negative collagen control are shown in FIG. 5B and the positive control of cyanoacrylate adhesive is shown in FIG. 5A.

A short description of data set [2]: Fibril dimensions measured from TEM images. Type of data set: physicochemical. Particulars: physiological conditions, TEM. On the procedure: For, electron microscopy, samples were examined using a Phillips CM10 TEM at 80-100 kV accelerating voltage. Gels were diluted to a peptide concentration of 20 μM seconds before application to a glow-discharged, carbon-coated, copper grid followed by coating with uranyl acetate solution (4% w/v in water).
The dimensions of the fibrils formed by these peptides are given in Table 2, and TEM images from which these measurements were obtained are shown in FIGS. 6A-6D. These dimensions are—the length of a peptide fibril (contour length, L), the length of a peptide fibril before it curves (persistence length, l), the length of a full twist of a peptide fibril (twist pitch, h) the width of a fibril at its widest point (ww) and the width of the fibril at its narrowest point as it twists (wn).

The subject of data set [3] is L929 fibroblast cells. As to the kind of experiment: Cell density in peptide gels by ATPLite assay. Type of data set: cell-based, murine. The text has this: After establishing that the peptides tested were not cytotoxic when placed in culture with L929 fibroblast cells, the next stage was assessing the suitability of the collagen peptide gels for use in supporting cell proliferation.
In general terms: ATP-based viability assays read luminescence as a measure of living cells.

A short description of data set [4]: Net charge of peptide at pH 7.5 in physiological solution. The format is physicochemical. Particulars: per peptide, pH 7.5, physiological solution.
A short description of data set [5]: Isotropic to nematic transition concentration. The format is physicochemical. Particulars: ribbons of P11-1, fibrils of P11-2. On the procedure:
We have also shown that above a certain peptide concentration cI/N (isotropic to nematic transition concentration) the semi-rigid ribbons, fibrils and fibres can align and thus transform their initially isotropic solution into a nematic liquid crystalline solution. The transition of the solution to the nematic liquid crystalline state happens at lower concentrations for more rigid polymers. For example, the nematic transition for solutions of ribbons of P11-1 peptide occurs at cI/N≈13 mM, whilst the nematic transition for solutions of the much more rigid fibrils of P11-2 peptide occurs at cI/N≈0.9 mM.

Data set [6] is described as follows: Persistence length of tapes, ribbons and fibrils in water. The format is physicochemical. An excerpt: The tapes, ribbons, fibrils and fibres are increasingly more rigid structures.
Data set [7] is described as follows: Geometrical sizes from X-ray diffraction data and molecular modelling. Type of data set: physicochemical. An excerpt:
FIG. 2. Model of hierarchical self-assembly of beta-sheet forming peptides. Each peptide in beta-strand conformation, is depicted as a chiral rod-like unit (a). Local arrangements (c-f) and the corresponding global equilibrium conformations (c′-f′) for the hierarchical self-assembling structures formed in solutions of chiral molecules (a), which have complementary donor and acceptor groups, shown by arrows, via which they interact and align to form tapes (c). The black and the white surfaces of the rod (a) are reflected in the sides of the helical tape (c) which is chosen to curl towards the black side (c′). The outer sides of the twisted ribbon (d), of the fibril (e) and of the fibre (f) are all white. One of the fibrils in the fibre (f′) is drawn with darker shade for clarity. (e) & (f) show the front views of the edges of fibrils and fibres, respectively. Geometrical sizes (the numbers in parentheses show the values of the corresponding geometric sizes for P11-I and P11-II peptides, based on X-ray diffraction data and molecular modelling): inter-rod separation in a beta-sheet tape b2 (b2=0.47 nm); tape width, equal to the length of a rod, b1 (b1=4 nm); inter-ribbon distance in the fibril, α (α=1.6-2 nm for P11-I, and α=2-2.4 nm for P11-II).

Where a SMILES comes first, the peptide text is derived from it.

For `CC(=O)N[C@@H](CC(N)=O)C(=O)N[C@@H](CC(N)=O)C(=O)N[C@@H](CCCNC(=N)N)C(=O)N[C@@H](Cc1ccccc1)C(=O)N[C@@H](CCC(=O)O)C(=O)N[C@@H](Cc1c[nH]c2ccccc12)C(=O)N[C@@H](CCC(=O)O)C(=O)N[C@@H](Cc1ccccc1)C(=O)N[C@@H](CCC(=O)O)C(=O)N[C@@H](CC(N)=O)C(=O)N[C@@H](CC(N)=O)C(N)=O` [Peptide P11-15, CH3CO-N-N-R-F-E-W-E-F-E-N-N-NH2] (Ac-NNRFEWEFENN-NH2), the contact cytotoxicity result in data set [1] is “growing in contact with and onto the peptide gel matrix”. Moreover, in data set [2], the “L, fibril contour length” value is on record as 1.3-4 μm; the “h, twist pitch” value is listed as 118-220 nm; the “l, fibril persistence length” value is 0.3-1.2 μm; the “wn, width of the fibril at its narrowest point” value is listed as 5-7 nm. Moreover, the “ww, width of the fibril at its widest point” value in data set [2] is given as 7-10 nm. The “support of cell growth” value in data set [3] (L929 cells in peptide gels) is “moderately successful in supporting cell growth”. In addition, in data set [3] (at end of cell culture experiment), the “macroscopic appearance of gel” value was “little sign of macroscopic degradation”. Also, the “Net charge at pH 7.5” value in data set [4] is reported as −2.

On to “QQR^+FQWQFE^-QQ (QQRFQWQFEQQ; self assembling peptide P11-2)”, for which the “cI/N, isotropic to nematic transition concentration” value in data set [5] is recorded as “≈ 0.9 mM”. Further, in data set [6], the “persistence length of fibrils” value is 20-70 μm and the “persistence length of ribbons” value is recorded as 1 μm. For the same compound, the “Net charge at pH 7.5” value in data set [4] is given as 0. Also, in data set [7], the “inter-ribbon distance in the fibril, α” value was 2-2.4 nm; the “inter-rod separation in a beta-sheet tape b2” value was 0.47 nm; the “tape width b1” value was 4 nm.
